Test results reported in patent US5036071A, “Derivatives of purine” (Medivir AB, priority 1984, dated 1991).

Experiments:
[1] = Plasma concentration of VIS 743 in mice after giving VIS 743 or VSA 305 orally; format: in vivo; conditions: 15 mg/kg p.o.
Experimental: Mice were given VIS 743 or VSA 305 p.o. Each compound was given in a dosage of 15 mg/kg. The plasma concentrations of VIS 743 were determined by analysis on HPLC, 30, 60, 90 and 120 min after dosage. Each concentration was determined as an average of results from two mice.

HSV-2 strain 91075 = assay: Treatment of a systemic HSV-2 infection in mice (mortality); format: in vivo; conditions: oral; for Mortality (%) day 6 / Mortality (%) day 9 / Mortality (%) day 12 / Mortality (%) day 15: twice daily for ten days; for Mortality (%) day 6: day 6 post infection; for Mortality (%) day 9: day 9 post infection; for Mortality (%) day 12: day 12 post infection; for Mortality (%) day 15: day 15 post infection
Experimental: In the following the compound (R)-(+)-9-(3,4-dihydroxybutyl)guanine is denoted VIS 743, the compound (R)-2-amino-9-(3,4-dihydroxybutyl)purine is denoted VSA 305 and Herpes simplex type 2 virus is denoted HSV-2. Mice infected systemically with HSV-2 strain 91075 (10^4 pfu infected i.p.) were treated orally with VIS 743 or VSA 305 twice daily for ten days. Treatment started 1 hour post infection. Mortality was determined on several days post infection.

Compound | biological transformation to VIS 743 [1] | Mortality (%) day 6 (HSV-2 strain 91075; 15 mg/kg) [%] | Mortality (%) day 9 (HSV-2 strain 91075; 15 mg/kg) [%] | Mortality (%) day 12 (HSV-2 strain 91075; 15 mg/kg) [%] | Mortality (%) day 15 (HSV-2 strain 91075; 15 mg/kg) [%] | effect of a low dose (15 mg/kg) compared with a high dose of VIS 743 (30 mg/kg) (HSV-2 strain 91075; VSA 305 15 mg/kg vs VIS 743 30 mg/kg) | Mortality (%) day 6 (HSV-2 strain 91075; 30 mg/kg) [%] | Mortality (%) day 9 (HSV-2 strain 91075; 30 mg/kg) [%] | Mortality (%) day 12 (HSV-2 strain 91075; 30 mg/kg) [%] | Mortality (%) day 15 (HSV-2 strain 91075; 30 mg/kg) [%]
Nc1ncc2ncn(CC[C@@H](O)CO)c2n1 [VSA 305, (R)-2-amino-9-(3,4-dihydroxybutyl)purine] | biologically transformed to VIS 743 | 0 | 45 | 50 | 53 | comparable |  |  |  | 
Nc1nc2c(ncn2CC[C@@H](O)CO)c(=O)[nH]1 [VIS 743, (R)-(+)-9-(3,4-dihydroxybutyl)guanine] |  | 40 | 80 | 100 | 100 |  | 0 | 28 | 45 | 53
